Source: BindingDB's records for doi:10.1016/j.ejmech.2019.112028 (Hunan Agricultural University, 2020)

Legend:
[1] = Potentiation of amphotericin-induced cytotoxicity against human DU-145 cells over expressing CYP1B1 assessed as reversal of CYP1B1 mediated drug resistance at 5 uM after 48 hrs by MTT assay (Rvb = 43.25 +/- 1.7 nM)
[2] = Potentiation of amphotericin-induced cytotoxicity against human DU-145 cells over expressing CYP1B1 assessed as reversal of CYP1B1 mediated drug resistance at 1 uM after 48 hrs by MTT assay (Rvb = 43.25 +/- 1.7 nM)

Structure (SMILES)	IC50 [1] [nM]	IC50 [2] [nM]
COc1ccc(OC)c2c1c(OC)cc1c(=O)cc(-c3ccc(-c4cn(CCOc5cccc6c5C(=O)N(C5CCC(=O)NC5=O)C6=O)nn4)cc3)oc12 (centres undefined)	24	
COc1ccc(OC)c2c1c(OC)cc1c(=O)cc(-c3ccc(-c4cn(CCCCCOc5cccc6c5C(=O)N(C5CCC(=O)NC5=O)C6=O)nn4)cc3)oc12 (centres undefined)		28
COc1ccc(OC)c2c1c(OC)cc1c(=O)cc(-c3ccc(-c4cn(CCCCCCOc5cccc6c5C(=O)N(C5CCC(=O)NC5=O)C6=O)nn4)cc3)oc12 (centres undefined)	7	
COc1ccc(OC)c2c1c(OC)cc1c(=O)cc(-c3ccc(-c4cn(CCCCCCCCOc5cccc6c5C(=O)N(C5CCC(=O)NC5=O)C6=O)nn4)cc3)oc12 (centres undefined)	37	
